Data: the supplement of paper PMC10307832

Assays:
Assay in all cases: relative viability (nuclei count vs DMSO), 5 days (fraction); higher = more cells survive
Alisertib + Crizotinib = compound: COc1cc(Nc2ncc3c(n2)-c2ccc(Cl)cc2C(c2c(F)cccc2OC)=NC3)ccc1C(=O)O [Alisertib] + C[C@@H](Oc1cc(-c2cnn(C3CCNCC3)c2)cnc1N)c1c(Cl)ccc(F)c1Cl [Crizotinib] (partner 1 µM)
Summary of the method: (§1)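 For relative viability, nuclei counts in treated wells were divided by those in vehicle wells. Lung cancer cell lines had been pin-tool dosed in 1536-well plates the day after seeding and cultured for 5 days, then fixed and stained in one step (final 0.05% Triton X-100, 1% formaldehyde, 1 ug/ml Hoechst) and imaged at 4×. Doses were one drug alone or a fixed anchor-drug dose plus five library-drug doses (not always all listed) in √10 steps, and values are duplicate-plate medians.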

Alisertib + Phenformin = compound: COc1cc(Nc2ncc3c(n2)-c2ccc(Cl)cc2C(c2c(F)cccc2OC)=NC3)ccc1C(=O)O [Alisertib] + N=C(N)NC(=N)NCCc1ccccc1 [Phenformin] (partner 250 µM)
Summary of the method: as §1

Alisertib + Navitoclax = compound: COc1cc(Nc2ncc3c(n2)-c2ccc(Cl)cc2C(c2c(F)cccc2OC)=NC3)ccc1C(=O)O [Alisertib] + CC1(C)CCC(c2ccc(Cl)cc2)=C(CN2CCN(c3ccc(C(=O)NS(=O)(=O)c4ccc(N[C@H](CCN5CCOCC5)CSc5ccccc5)c(S(=O)(=O)C(F)(F)F)c4)cc3)CC2)C1 [Navitoclax] (partner 0.5 µM)
Summary of the method: as §1

Alisertib + Decitabine = compound: COc1cc(Nc2ncc3c(n2)-c2ccc(Cl)cc2C(c2c(F)cccc2OC)=NC3)ccc1C(=O)O [Alisertib] + Nc1ncn([C@H]2C[C@H](O)[C@@H](CO)O2)c(=O)n1 [Decitabine] (partner 2 µM)
Summary of the method: as §1

| Cell Line | relative viability (Alisertib + Crizotinib; first compound 0.005 µM) | relative viability (Alisertib + Crizotinib; first compound 0.01581 µM) | relative viability (Alisertib + Crizotinib; first compound 0.05 µM) | relative viability (Alisertib + Crizotinib; first compound 0.1581 µM) | relative viability (Alisertib + Crizotinib; first compound 0.5 µM) | relative viability (Alisertib + Phenformin; first compound 0.005 µM) | relative viability (Alisertib + Phenformin; first compound 0.01581 µM) | relative viability (Alisertib + Phenformin; first compound 0.05 µM) | relative viability (Alisertib + Phenformin; first compound 0.1581 µM) | relative viability (Alisertib + Phenformin; first compound 0.5 µM) | relative viability (Alisertib + Navitoclax; first compound 0.005 µM) | relative viability (Alisertib + Navitoclax; first compound 0.01581 µM) | relative viability (Alisertib + Navitoclax; first compound 0.05 µM) | relative viability (Alisertib + Navitoclax; first compound 0.1581 µM) | relative viability (Alisertib + Navitoclax; first compound 0.5 µM) | relative viability (Alisertib + Decitabine; first compound 0.005 µM) | relative viability (Alisertib + Decitabine; first compound 0.01581 µM) | relative viability (Alisertib + Decitabine; first compound 0.05 µM) | relative viability (Alisertib + Decitabine; first compound 0.1581 µM) | relative viability (Alisertib + Decitabine; first compound 0.5 µM) |
| --- | --- | --- | --- | --- | --- | --- | --- | --- | --- | --- | --- | --- | --- | --- | --- | --- | --- | --- | --- | --- |
| NCI-H2085 | 0.757 | 0.693 | 0.33 | 0.391 | 0.388 | 0.597 | 0.651 | 0.42 | 0.259 | 0.327 | 1.15 | 1.03 | 0.401 | 0.278 | 0.247 | 0.565 | 0.544 | 0.319 | 0.396 | 0.332 |
| NCI-H2087 | 0.893 | 0.609 | 0.176 | 0.225 | 0.209 | 0.423 | 0.372 | 0.13 | 0.12 | 0.105 | 0.868 | 0.742 | 0.164 | 0.153 | 0.153 | 0.246 | 0.268 | 0.149 | 0.126 | 0.0842 |
| NCI-H2126 | 0.96 | 0.945 | 0.486 | 0.365 | 0.311 | 0.482 | 0.446 | 0.413 | 0.257 | 0.266 | 0.819 | 0.874 | 0.574 | 0.276 | 0.266 | 0.528 | 0.558 | 0.326 | 0.268 | 0.553 |
| NCI-H2170 | 1.17 | 1.03 | 0.438 | 0.325 | 0.225 | 0.388 | 0.374 | 0.395 | 0.276 | 0.207 | 0.564 | 0.55 | 0.238 | 0.232 | 0.178 | 0.452 | 0.448 | 0.3 | 0.272 | 0.147 |
| NCI-H2347 | 0.783 | 0.526 | 0.61 | 0.454 | 0.468 | 0.346 | 0.373 | 0.299 | 0.411 | 0.242 | 0.742 | 0.695 | 0.459 | 0.42 | 0.329 | 0.574 | 0.582 | 0.523 | 0.51 | 0.374 |
| NCI-H2405 | 0.781 | 0.794 | 0.491 | 0.268 | 0.253 | 0.366 | 0.46 | 0.371 | 0.28 | 0.247 | 0.873 | 0.778 | 0.574 | 0.198 | 0.135 | 0.648 | 0.748 | 0.632 | 0.39 | 0.277 |
| NCI-H3122 | 0.244 | 0.306 | 0.217 | 0.218 | 0.191 | 0.376 | 0.371 | 0.37 | 0.248 | 0.142 | 1.04 | 0.992 | 0.664 | 0.592 | 0.237 | 0.376 | 0.412 | 0.375 | 0.192 | 0.161 |
| PC-3 [JPC-3] | 0.955 | 0.981 | 0.646 | 0.474 | 0.386 | 0.488 | 0.456 | 0.484 | 0.377 | 0.293 | 0.757 | 0.79 | 0.401 | 0.306 | 0.281 | 0.829 | 0.822 | 0.661 | 0.62 | 0.51 |
| PC-14 | 0.845 | 0.877 | 0.654 | 0.145 | 0.112 | 0.481 | 0.453 | 0.363 | 0.0963 | 0.0647 | 0.924 | 0.881 | 0.663 | 0.362 | 0.0849 | 0.173 | 0.187 | 0.154 | 0.057 | 0.0492 |
| RERF-LC-KJ | 0.831 | 0.662 | 0.692 | 0.206 | 0.196 | 0.382 | 0.377 | 0.246 | 0.219 | 0.233 | 1.06 | 0.838 | 0.415 | 0.178 | 0.284 | 0.731 | 0.443 | 0.258 | 0.173 | 0.247 |
| SK-LU-1 | 0.775 | 0.628 | 0.389 | 0.362 | 0.239 | 0.455 | 0.462 | 0.22 | 0.21 | 0.142 | 0.841 | 0.736 | 0.101 | 0.139 | 0.112 | 0.58 | 0.665 | 0.239 | 0.307 | 0.276 |
| SK-MES-1 | 0.914 | 0.801 | 0.673 | 0.25 | 0.18 | 0.643 | 0.684 | 0.502 | 0.38 | 0.146 | 1.09 | 0.892 | 0.315 | 0.139 | 0.0931 | 0.373 | 0.346 | 0.225 | 0.158 | 0.167 |
| SW 1573 | 0.776 | 0.466 | 0.434 | 0.248 | 0.113 | 0.371 | 0.256 | 0.178 | 0.113 | 0.0928 | 0.954 | 0.737 | 0.219 | 0.0904 | 0.0636 | 0.419 | 0.338 | 0.212 | 0.125 | 0.109 |
| UMC-11 | 0.515 | 0.285 | 0.117 | 0.103 | 0.0832 | 0.235 | 0.192 | 0.176 | 0.174 | 0.164 | 0.241 | 0.163 | 0.121 | 0.115 | 0.125 | 0.514 | 0.324 | 0.291 | 0.213 | 0.214 |
